{"source": "patent US7285701B2", "about": "“Cyanobacterial nucleic acid fragments encoding proteins useful for controlling plant traits via nuclear or plastome transformation” (BASF Plant Science GmbH, priority 2001, dated 2007)", "key": {"[1]": {"system": "4′-fluoro-6-[(alpha,alpha,alpha,-trifluoro-m-toly)oxy]-picolinamide resistant mutants", "experiment": "Cross-resistance test of resistant mutants against other PDS inhibitors", "type": "cell-based, Synechocystis"}, "[2]": {"system": "Synechocystis PCC 6803", "experiment": "Susceptibility of Synechocystis PCC 6803 to known herbicides (Table 2)", "type": "cell-based", "description": "(§1) To identity a target site gene activity, two types of Bluegreen algae, Synechocystis PCC 6803 (American Type Culture Collection, Rockville, Md.) and Anabaena PCC 7120 (American Type Culture Collection, Rockville, Md.) can be used for the screen. One is grown in microtiter dishes in BG-11 medium supplemented with various concentrations of the test compounds. Inhibition of growth can be monitored by visual inspection after two to three days of culture. Quantitative growth measurements can be taken photometrically starting one day after inoculation.\n(§2) Alternatively screens can be performed on agar plates with “lawns” of cyanobacteria and paper discs impregnated with test compounds. In this case, zones of inhibited growth around paper discs can be detected after two or three days.\n(§3) To set up the assay, wild type cells of Synechocystis were mixed with equal volumes of 2× top agar and 2× BG-11 and overlaid on top of BG-11 agar plate. Cells normally appear in 3-5 days after plating. This method will yield an even and uniform lawn of cells. Upon solidifying, test compounds are then spotted on Whatman filter paper disc before being placed on agar plates. Four compounds can be tested on a single plate. Using this screening, in an example employing 160 different compounds, predominantly compounds of novel mode of action, have been tested on this microbe, and on average, 25% of the compounds show at least some activity.\nA rapid plate based assay for screening lead compounds was developed as follows. First, either one of two types of bluegreen algae, Synechocystis PCC6803 and Anabaen PC 7120 were grown in microtitre dishes containing BG-11 supplemented with various concentrations of 160 different test compounds. Alternatively, screens can be performed on agar plates with lawns of cyanobacteria and paper discs impregnated with test compounds.\n(§4) A rapid plate based assay for screening and identifying active compounds is then performed. Wild type cells of Synechocystis are mixed with equal volumes of 2× top agar and 2× BG-11. The mixture is then overlaid on top of a BG-11 agar plate. Cells normally appear 3-5 days after plating. This method will yield an even and uniform lawn of cells.\n(§5) After solidification of the agar, test compounds were spotted on Whatman filter paper disc, and then were placed on agar plates. Four different compounds were tested on a single plate. Using this screening method, 160 different compounds were tested, predominantly compounds of novel mode of action. On average, 25% of the compounds show at least some activity.\nCyanobacteria are a particularly useful source of genes for enhancing crop performance due to their similarity, and ancestral connection, to plant chloroplasts. In particular, cyanobacterial genes may be useful for transformation directly into the chloroplast genome due to similarities in genetic elements. Similarities in cyanobacterial genes and proteins to those from chloroplasts can carry over to a shared susceptibility to herbicides."}, "[3]": {"system": "wild type Synechocystis PCC6803", "experiment": "Paper disc assay on BG-11 agar, wild type Synechocystis", "type": "cell-based", "source_text": "as §2, §3\nSusceptibility of Synechocystis to 4′-fluoro-6-[(alpha,alpha,alpha,-trifluoro-m-toly)oxy]-picolinamide was tested using a paper disc assay in which 4′-fluoro-6-[(alpha,alpha,alpha,-trifluoro-m-toly)oxy]-picolinamide was spotted in a paper disc before being placed on a lawn of cells. In determining susceptibility, the size of the zone of inhibition is indicative of the potency of the compound.\nas §4, §5\nThe resistant phenotype of selected mutant cell lines was further tested in solid medium as well as in suspension cultures. […]"}, "[4]": {"system": "wild type Synechocystis", "experiment": "Dose-response in liquid/suspension culture, wild type Synechocystis", "type": "cell-based, Synechocystis PCC6803", "description": "as §1\n(§6) These experiments also established a dose-response curve. A lethal concentration for resistant mutant selection was 1-2 μM of 4′-fluoro-6-[(alpha,alpha,alpha,-trifluoro-m-toly)oxy]-picolinamide. Dose-response studies were also performed in 96-sell microtiter plates on wild type and putative 4′-fluoro-6-[(alpha,alpha,alpha,-trifluoro-m-toly)oxy]-picolinamide resistant mutants of Synechocystis. The growth of the culture was measured daily at an optical density of 690 nm.\n(§7) For wild type cells (WT), the growth was inhibited at concentrations of 4′-fluoro-6-[(alpha,alpha,alpha,-trifluoro-m-toly)oxy]-picolinamide of <0.25 μM, with an I50 in the sub μM range. By contrast, the I50 values are between 1-2 μM for 5-1/12E, and in the range of 5-10 μM for 7-3/12F and 7-4/12F, respectively.\n(§8) Wild type cells were inhibited at concentrations of <0.25 uM 4′-fluoro-6-[(alpha,alpha,alpha,-trifluoro-m-toly)oxy]-picolinamide, with an I50 in the sub μM range. In contrast I50 values are between 1-2 μM for 5-1/12E and 5-1/12F, and between 5-10 μM for 7-3/12F and […]. Thus, because the cell lines with the mutant pds genes are far more resistant than wild type cell lines, there is evidence that the selected cultures contain 4′-fluoro-6-[(alpha,alpha,alpha,-trifluoro-m-toly)oxy]-picolinamide resistance."}, "[5]": {"system": "Synechocystis EMS resistant mutant cell lines", "experiment": "Dose-response in suspension culture, resistant mutant cell lines", "type": "cell-based, Synechocystis PCC6803", "settings": "seven days, read-out: I50", "description": "as §6, §7, §8"}, "[6]": {"system": "Anabaena AHAS", "experiment": "In vitro AHAS assay", "type": "biochemical, Anabaena PCC7120", "settings": "100 nM", "description": "(§9) AHAS is the target site of both PURSUIT® imazethapyr and OUST® sulfometuron methyl herbicides. To determine if resistance to the herbicides is due to a natural resistance to inhibition of the acetohydroxyacid synthase enzymes from the cyanobacteria, or if it is due to alternative mechanisms (e.g. lack of entry into the cell), the in vitro activity of the AHAS enzyme in the presence of the herbicides was tested.\n(§10) AHAS assays were performed with slight modification as described by Singh et. al (Singh B K, Stidham M A, Shaner D L, 1988, Assay for acetohydroxyacid synthase from plants. Anal Biochem 171: 173-179).\n(§11) Synechocystis PCC6803 and Anabaena PCC7120 were cultured in 1.5 L of BG-11 media. Cells were collected by centrifuge and stored frozen at −80° C. Frozen cells were thawed and placed in a 30 mL Bead Beater cell disruptor chamber (BioSpec Corp Bartlesville, Okla.). Seven mL of acid washed sand was added. The chamber was filled with 2× ASHA assay buffer, consisting of 100 mM HEPES pH7.0, 200 mM pyruvate, 20 mM MgCl2, 2 mM TPP (Thiamine pyrophosphate) and 100 μM FAD (flavin adenine dinucleotide).\n(§12) The Bead Beater cell disruptor was packed in ice and turned on for 10 seconds, followed by cooling for 3 minutes. This cycle was repeated five times. The extract was transferred into a centrifuge tube, and spun in a Beckman SA20 (Beckman, Fullerton, Calif.) rotor for 15 minutes at 17,000 rpms. […]"}, "[7]": {"system": "Synechocystis PCC6803", "experiment": "In vivo growth in BG-11 media with commercial herbicides", "type": "cell-based", "settings": "100 nM, one week of culture in BG-11 media", "description": "(§13) In vivo resistance of cyanobacteria to PURSUIT® imazethapyr and OUST® sulfometuron methyl. As a preliminary matter, Synechocystis PCC6803 and Anabaenia PCC7120 were tested for susceptibility to PURSUIT® imazethapyr and OUST® sulfometuron methyl. AHAS genes which are resistant to these herbicides are excellent candidates for transformation in plant plastomes and nuclear genomes. Such transformants can be used in a weed control strategy using a combination of transgenic herbicide resistant crops and herbicides.\n(§14) In vivo testing of Synechocystis PCC6803 and Anabaena PCC7120 was done by culturing the organisms in varying concentrations of the commercial herbicides. […] For relative comparison purposes a concentration of 1 μM PURSUIT® imazethapyr in agar media is lethal to Arabidopsis plants."}, "[8]": {"system": "Anabaena PCC7120", "experiment": "In vivo growth in BG-11 media with commercial herbicides", "type": "cell-based", "settings": "100 nM, one week of culture in BG-11 media", "description": "as §13, §14"}, "[9]": {"system": "E. coli M1262 expressing the cyanobacterial ahas gene", "experiment": "Growth on minimal media of E. coli M1262 expressing the cyanobacterial ahas gene", "type": "cell-based", "source_text": "To confirm that these plasmids carry functional AHAS sequences, plasmid DNA from each of the ten rescued colonies was transformed into the E. coli strain M1262. (leuB6, ilv1614, ilvH612, λ^−, relA1, spoT1, ilvB619, ilvG603, ilfG605(am), thi-1) (Genetics Stock Center, Yale University). This strain of E. coli is lacking in AHAS. […] The ahas gene can therefore be used for achieving herbicide tolerance in crops by transformation into the nuclear or plastidic genome."}, "[10]": {"system": "Synechocystis AHAS", "experiment": "In vitro AHAS assay", "type": "biochemical, Synechocystis PCC6803", "settings": "100 nM", "description": "as §9, §10, §11, §12"}, "[11]": {"settings": "wild type cells, suspension culture, seven days"}}, "note": "Like-named read-outs stand apart in the source and are kept apart here.", "data": [{"smiles": "Cc1cc(OCC=C(Cl)Cl)nc(Oc2ccnc(C(F)(F)F)c2)c1", "note": "[pyridine, 2-[(3,3-dichloro-2-propenyl)oxy]-4-methyl-6-[(2-(trifluoromethyl)-4-pyrodinyl]oxy]]", "values": [{"measurement": "cross-resistance of the resistant mutants", "setting": "[1]", "result": "exhibited cross-resistance"}]}, {"smiles": "N#Cc1cc(Br)c(O)c(Br)c1", "note": "[Bromoxynil]", "values": [{"measurement": "Activity Rating (++ = highest)", "setting": "[2]", "result": "+"}]}, {"smiles": "CCOC(=O)Nc1cccc(OC(=O)Nc2ccccc2)c1", "note": "[Desmedipham]", "values": [{"measurement": "Activity Rating (++ = highest)", "setting": "[2]", "result": "++"}]}, {"smiles": "CC(=O)/C(C(=O)c1ccc(Cl)cc1Cl)=C(/N)SCc1ccccc1", "note": "[(2E)-2-[amino(benzylsulfanyl)methylene]-1-(2,4-dichlorophenyl)-1,3-butanedione]", "values": [{"measurement": "cross-resistance of the resistant mutants", "setting": "[1]", "result": "exhibited cross-resistance"}]}, {"smiles": "CN(C)C(=O)Nc1ccccc1", "note": "[Fenuron]", "values": [{"measurement": "Activity Rating (++ = highest)", "setting": "[2]", "result": "++"}]}, {"smiles": "CN(C)C(=O)Nc1ccc(Cl)cc1", "note": "[Monuron]", "values": [{"measurement": "Activity Rating (++ = highest)", "setting": "[2]", "result": "++"}]}, {"smiles": "CCNc1nc(Cl)nc(NCC)n1", "note": "[Simazine]", "values": [{"measurement": "Activity Rating (++ = highest)", "setting": "[2]", "result": "++"}]}, {"smiles": "O=C(Nc1ccc(F)cc1)c1cccc(Oc2cccc(C(F)(F)F)c2)n1", "note": "[4′-fluoro-6-[(alpha,alpha,alpha,-trifluoro-m-toly)oxy]-picolinamide]", "values": [{"measurement": "concentrations active against Synechocystis PCC6803", "setting": "[3]; BG-11 solid medium, paper disc assay", "result": "1 to 2", "unit": "µM"}, {"measurement": "lethal concentration for resistant mutant selection", "setting": "[3]; Synechocystis", "result": "1 to 2", "unit": "µM"}, {"measurement": "growth of wild type Synechocystis", "setting": "[3]; paper disc assay, 0.5 nmol", "result": "significantly inhibited"}, {"measurement": "I50 of growth inhibition", "setting": "[4]; liquid cultures", "result": "lower sub-micromolar range"}, {"measurement": "I50", "setting": "[4]; [11]", "result": "sub μM range"}, {"measurement": "concentration at which growth was inhibited", "setting": "[4]; [11]", "result": "< 0.25", "unit": "µM"}, {"measurement": "IC50", "setting": "[5]; mutant 5-1/12E", "result": "1 to 2", "unit": "µM"}, {"measurement": "IC50", "setting": "[5]; mutant 5-1/12F", "result": "1 to 2", "unit": "µM"}, {"measurement": "IC50", "setting": "[5]; mutant 5-4/12F", "result": "5 to 10", "unit": "µM"}, {"measurement": "IC50", "setting": "[5]; mutant 7-3/12F", "result": "5 to 10", "unit": "µM"}, {"measurement": "IC50", "setting": "[5]; mutant 7-4/12F", "result": "5 to 10", "unit": "µM"}]}, {"smiles": "COC(=O)c1ccccc1S(=O)(=O)NC(=O)Nc1nc(C)cc(C)n1", "note": "[OUST® sulfometuron methyl, sulfometuron methyl]", "values": [{"measurement": "inhibition of AHAS enzyme", "setting": "[6]", "result": "No significant inhibition"}, {"measurement": "inhibition of growth", "setting": "[7]", "result": "No inhibition of growth"}, {"measurement": "inhibition of growth", "setting": "[8]", "result": "No inhibition of growth"}, {"measurement": "growth on minimal media in the presence of the herbicide", "setting": "[9]", "result": "capable of growing"}, {"measurement": "inhibition of AHAS enzyme", "setting": "[10]", "result": "No significant inhibition"}]}, {"smiles": "COC(=O)Nc1cccc(OC(=O)Nc2cccc(C)c2)c1", "note": "[Phenmedipham]", "values": [{"measurement": "Activity Rating (++ = highest)", "setting": "[2]", "result": "++"}]}, {"smiles": "CN(C)C(=O)Nc1ccc(Cl)cc1", "note": "[CMU]", "values": [{"measurement": "Activity Rating (++ = highest)", "setting": "[2]", "result": "+"}]}, {"smiles": "O=C(Nc1cccc2c1C(=O)c1cccc(NC(=O)c3cc(C(=O)Nc4cccc5c4C(=O)c4cccc(NC(=O)c6ccccc6)c4C5=O)c(C(=O)Nc4cccc5c4C(=O)c4cccc(NC(=O)c6ccccc6)c4C5=O)cc3C(=O)Nc3cccc4c3C(=O)c3cccc(NC(=O)c5ccccc5)c3C4=O)c1C2=O)c1ccccc1", "note": "[1,2,4,5-benzenetetracarboxamide,N,N′,N″,N′″-tetrakis[5-(benzoylamino)-9,10-dihydro-9,10-dioxo-1-anthracenyl]]", "values": [{"measurement": "cross-resistance of the resistant mutants", "setting": "[1]", "result": "exhibited cross-resistance"}]}]}
